{"source": "patent US10766888B1", "about": "“HMOX1 inducers” (Mitobridge Inc., priority 2019, dated 2020)", "key": {"[1]": {"test_system": "VCAM-1", "assay": "Gene expression (VCAM-1) in primary human endothelial cells stimulated with TNFa", "format": "cell-based", "conditions": "HPAEC", "procedure": "Example 150. Gene Expression in Primary Human Endothelial Cells\nInflammatory conditions in endothelial cells increase expression of adhesion molecules, such as VCAM-1, ICAM-1 and E-selectin through NF-kB signaling. HMOX1−/− endothelial cells show increased expression of VCAM-1 in response to TNF stimulation, as compared to HMOX+/+endothelial cells. See Seldon et al., J Immunol Dec. 1, 2007, 179 (11) 7840-7851.\nPrimary human pulmonary artery endothelial cells (HPAEC) (Lonza # CC-2530) were seeded in 12-well plates (TrueLine # TR5001) at 200 k cells per well and placed at 37° C. in 5% CO2. 18-24 hr post seeding, cells were treated with the compound of Example 17 via media change. 24 hr post treatment with the compound, cells were treated with 10 ng/mL TNFa (Invitrogen # PHC3015 in H2O) alone or with the compound of Example 17. […] 20 ng cDNA was mixed with water, iQ™ SYBR® Green Supermix (BioRad #170-8886), and 300 nM primer (IDT # NM_001078) for a total 10 ul reaction and loaded into 384-well white qPCR plates and subsequently analyzed using BioRad CFX384. […] To calculate fold change, the ΔCt on a per sample basis was calculated as Ct (Gene of interest)−Ct (Average of reference genes). The ΔΔCt was then calculated as ΔCt (experimental sample)−Average ΔCt (control group). Fold change was calculated as 2^−ΔΔCT."}, "[2]": {"test_system": "FTH1", "assay": "FTH1 mRNA expression in HepG2 cells (Nanostring)", "format": "cell-based, human", "conditions": "24 hours treatment", "procedure": "RNA Isolation and Quantification of Gene Expression\nHepG2 cells were seeded at 250 k/well in 12-well tissue culture plates coated with collagen (collagen I, rat tail (thin plate coating); ENZO Life Sciences) for approximately 24 hours. The seeded cells were then treated with dose titration of the compound of Example 17 or dimethyl fumarate (DMF) (a Nrf2 activator; Fisher Scientific) via media change, with biological triplicates performed for each treatment. After approximately 24 hours of treatment, cells were visually inspected to confirm that no toxicity occurred with compound treatment. The treated cells were washed with PBS, aspirated, parafilmed and frozen at −80° C. prior to RNA isolation. RNA was isolated using Machery-Nagel isolation kit (NucleoSpin® RNA: catalog 740955.250) and then quantitated using ThermoFisher Nanodrop.\nRNA was diluted for Nanostring gene expression analysis. The diluted RNA at an input of 200 ng RNA was run on a Nanostring instrument, which was supported with nCounter® SPRINT Profiler System and nSolver4.0 Software, nCounter® SPRINT Cartridge, nCounter® SPRINT Reagent Pack, and nCounter® SPRINT Hybridization Buffer. Analysis was done manually using raw data obtained from nSolver4.0 Software. CLTC, POLR2A, RPL27 and TBP were used as reference genes for normalization. Data was graphed as fold change compared to DMSO treatment. […]"}, "[3]": {"assay": "PD study: compound concentration in mouse liver", "format": "in vivo, C57BL/6 mice", "conditions": "male, C57BL/6, mouse, 50 mg/kg, 50 mpk oral", "procedure": "9-10 week old male C57BL/6 mice were dosed orally with 50 mg/kg of vehicle or compound formulated in 5% w/v tween 80 and 0.5% methyl cellulose. At indicated time points (3 and 6 hours or or 4 and 8 hours post-dosing as shown in the results below), whole blood was collected, animal was sacrificed and liver was collected. Blood samples were transferred to vials containing 4 μL of 10% w/v EDTA, centrifuged at 6000 rpm for 8 in below 10° C. to obtain plasma. Samples were frozen and later processed for HMOX1 protein levels as indicated below: […]"}, "[4]": {"test_system": "HbSS Townes sickle mice", "assay": "Heme-induced vaso-occlusion (stasis) in HbSS Townes sickle mice", "format": "in vivo", "conditions": "10, 25, 50 mg/kg PO once daily for 8 days, 1 h after heme infusion", "source_text": "Townes-SS mice were gavaged once daily with Vehicle or the compound of Example 17 for 8 days. After the last gavage dorsal skin-fold chambers were implanted on the mice and 20-22 flowing venules were selected and mapped in the subcutaneous skin using intravital microscopy. Mice were then infused via the tail vein with Panhematin (3.2 μmots heme/kg body weight). One hour after infusion each venule was re-examined for microvascular stasis (no flow) and data are expressed as % stasis. Stasis values are means+SD. One-Way ANOVA with Dunnett's Multiple comparison to Vehicle ****P<0.0001\nDosing Scheme of HMOX Inducers to HbSS Townes Sickle Mice\nHbSS Townes sickle mice were oral gavaged once daily with Vehicle or the compound of Example 17 listed below for 8 days. To minimize experimental inconsistency, fresh formulation was prepared every day and vortexed prior to drawing test article into syringe for each dosing, and dosing was performed by the same individual throughout the day. The last-day dose was administered by oral gavage 4 hours prior to hemin infusion described below. • 1. […]\nMale and female sickle mice, approximately 12 weeks of age, were weighed before surgery. […] All of the selected venules were re-examined at 1 h after hemin infusion, and the number of static (no flow) venules was counted and expressed as percent stasis. […]"}}, "note": "Entries after “also recorded” stand apart in the source; their conditions may differ.", "data": [{"compound": "Cn1c(Nc2nc3ccccc3o2)nc2cc(C(=O)NCCOCCO)ccc21", "note": "[Example 17, 2-(benzo[d]oxazol-2-ylamino)-N-(2-(2-hydroxyethoxy)ethyl)-1-methyl-1H-benzo[d]imidazole-5-carboxamide]", "values": [{"measurement": "TNF-α mediated endothelial cell activation / VCAM-1 expression (in words)", "setting": "[1]; 24 hr pre-treatment, 10 ng/mL TNFa 4 hours", "value": "reduced this TNF-α mediated endothelial cell activation"}, {"measurement": "toxicity by visual inspection of cells", "setting": "[1]; after 4 hours of TNFa treatment", "value": "no toxicity"}, {"measurement": "FTH1 expression fold increase (in words)", "setting": "[2]", "value": "comparable fold increases"}, {"measurement": "concentration at 4 h", "setting": "[3]; 4 hours (Study 702), read-out: Liver Conc uM (4 h)", "value": 11, "unit": "µM"}, {"measurement": "concentration at 8 h", "setting": "[3]; 8 hours (Study 702), read-out: Liver Conc uM (8 h)", "value": 4.9, "unit": "µM"}, {"measurement": "microvascular stasis compared with Vehicle (in words)", "setting": "[4]", "value": "significantly reduced; also recorded: dose responsively inhibit"}]}]}
